Source: patent publication US12398120B2, “Substituted hydantoinamides as ADAMTS7 antagonists” (BAYER AKTIENGESELLSCHAFT, priority 2019, dated 2025)

These compounds were tested against ADAMTS4 (Homo sapiens (Human), UniProt O75173) (assay: Selectivity assay for ADAMTS-7 modulators: ADAMTS4 (FRET substrate)). Conditions: ADAMTS4 (R&D 4307-AD) 50 nM, substrate Dabcyl-EEVKAKVQPY-Glu(Edans)-NH2 1 μM, 120 min, 32° C.
Assay type: biochemical
Experimental: 1 μl test compound solution (dissolved in DMSO, at the corresponding concentration) or pure DMSO as a control was added per well. The enzymatic reaction was initiated by addition of 25 μl of the respective concentration of the respective FRET substrate (see table 2 below) in reaction buffer.
The increase of fluorescence intensity was measured in appropriate fluorescence plate reader (e.g. TECAN Ultra) using the respective wavelengths for excitation and emission. IC50 values were calculated from percentage of inhibition of enzyme activity as a function of test compound concentration.

Sequence of ADAMTS4 (O75173 213-685): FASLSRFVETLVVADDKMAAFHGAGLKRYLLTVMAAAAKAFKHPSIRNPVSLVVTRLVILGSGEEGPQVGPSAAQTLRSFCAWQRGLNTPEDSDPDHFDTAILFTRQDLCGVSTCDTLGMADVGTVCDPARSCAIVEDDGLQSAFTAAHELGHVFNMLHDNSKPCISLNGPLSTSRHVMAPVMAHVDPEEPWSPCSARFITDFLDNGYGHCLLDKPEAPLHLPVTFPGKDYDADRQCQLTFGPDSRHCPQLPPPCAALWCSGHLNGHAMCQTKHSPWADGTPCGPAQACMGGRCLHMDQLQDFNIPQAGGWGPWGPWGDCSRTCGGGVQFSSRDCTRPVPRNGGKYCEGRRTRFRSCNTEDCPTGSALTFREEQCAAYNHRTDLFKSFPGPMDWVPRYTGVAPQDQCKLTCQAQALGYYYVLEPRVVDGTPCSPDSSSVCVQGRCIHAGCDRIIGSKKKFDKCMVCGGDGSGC

Row | IC50 [µM] | Compound
1 | 31 | O=C1NC(=O)C(CNC(=O)c2ccccc2-c2ccc(Cl)cc2)(C2(F)CC2)N1 (racemic) [Example 250, Rac-4′-Chloro-N-{[4-(1-Fluorocyclopropyl)-2,5-Dioxoimidazolidin-4-Yl]Methyl}[Biphenyl]-2-Carboxamide]
2 | 26 | O=C1NC(=O)C(CNC(=O)c2ccccc2-c2ccc(C(F)(F)F)cc2)(C2(F)CC2)N1 (racemic) [Example 254, Rac-N-{[4-(1-Fluorocyclopropyl)-2,5-Dioxoimidazolidin-4-Yl]Methyl}-4′-(Trifluoromethyl)[Biphenyl]-2-Carboxamide]
3 | 11 | O=C1NC(=O)C(CNC(=O)c2ccc(F)cc2-c2ccc(Cl)cc2)(c2ccnn2C(F)F)N1 (racemic) [Example 257, Rac-4′-Chloro-N-({4-[1-(Difluoromethyl)-1H-Pyrazol-5-Yl]-2,5-Dioxoimidazolidin-4-Yl}Methyl)-5-Fluoro[Biphenyl]-2-Carboxamide]
4 | 12 | O=C1NC(=O)C(CNC(=O)c2ccccc2-c2ccc(Cl)cc2)(c2ccnn2C(F)F)N1 (racemic) [Example 258, Rac-4′-Chloro-N-({4-[1-(Difluoromethyl)-1H-Pyrazol-5-Yl]-2,5-Dioxoimidazolidin-4-Yl}Methyl)[Biphenyl]-2-Carboxamide]
5 | 9.1 | O=C1NC(=O)C(CNC(=O)c2cc(F)ccc2-c2ccc(C(F)(F)F)cc2)(c2ncsc2C(F)(F)F)N1 (racemic) [Example 265, Rac-N-({2,5-Dioxo-4-[5-(Trifluoromethyl)-1,3-Thiazol-4-Yl]Imidazolidin-4-Yl}Methyl)-4-Fluoro-4′-(Trifluoromethyl)[Biphenyl]-2-Carboxamide]
6 | 19 | O=C1NC(=O)C(CNC(=O)c2ccc(F)cc2-c2ccc(C(F)(F)F)cc2)(c2ncsc2C(F)(F)F)N1 (racemic) [Example 267, Rac-N-({2,5-Dioxo-4-[5-(Trifluoromethyl)-1,3-Thiazol-4-Yl]Imidazolidin-4-Yl}Methyl)-5-Fluoro-4′-(Trifluoromethyl)[Biphenyl]-2-Carboxamide]
7 | 9.5 | Cc1nc(C2(CNC(=O)c3ccc(F)cc3-c3ccc(C(F)(F)F)cc3)NC(=O)NC2=O)c(C)s1 (racemic) [Example 269, Rac-N-{[4-(2,5-Dimethyl-1,3-Thiazol-4-Yl)-2,5-Dioxoimidazolidin-4-Yl]Methyl}-5-Fluoro-4′-(Trifluoromethyl)[Biphenyl]-2-Carboxamide]
8 | 7.8 | O=C1NC(=O)C(CNC(=O)c2ccc(F)cc2-c2ccc(C(F)(F)F)cc2)(c2ncsc2C2CC2)N1 (racemic) [Example 272, Rac-N-{[4-(5-Cyclopropyl-1,3-Thiazol-4-Yl)-2,5-Dioxoimidazolidin-4-Yl]Methyl}-5-Fluoro-4′-(Trifluoromethyl)[Biphenyl]-2-Carboxamide]
9 | 9.1 | Cc1cc(C2(CNC(=O)c3ccccc3-c3ccc(C(F)(F)F)cc3)NC(=O)NC2=O)n(C)n1 (racemic) [Example 275, Rac-N-{[4-(1,3-Dimethyl-1H-Pyrazol-5-Yl)-2,5-Dioxoimidazolidin-4-Yl]Methyl}-4′-(Trifluoromethyl)[Biphenyl]-2-Carboxamide]
10 | 13 | O=C1NC(=O)C(CNC(=O)c2ccccc2-c2ccc(C(F)(F)F)cc2)(C2(Cl)CC2)N1 (racemic) [Example 279, Rac-N-{[4-(1-Chlorocyclopropyl)-2,5-Dioxoimidazolidin-4-Yl]Methyl}-4′-(Trifluoromethyl)[Biphenyl]-2-Carboxamide]
11 | 16 | O=C1NC(=O)C(CNC(=O)c2ccc(F)cc2-c2ccc(C(F)(F)F)cc2)(C2(Cl)CC2)N1 (racemic) [Example 282, Rac-N-{[4-(1-Chlorocyclopropyl)-2,5-Dioxoimidazolidin-4-Yl]Methyl}-5-Fluoro-4′-(Trifluoromethyl)[Biphenyl]-2-Carboxamide]
12 | 6.3 | Cn1cncc1C1(CNC(=O)c2ccccc2-c2ccc(C(F)(F)F)cc2)NC(=O)NC1=O (racemic) [Example 283, Rac-N-{[4-(1-Methyl-1H-Imidazol-5-Yl)-2,5-Dioxoimidazolidin-4-Yl]Methyl}-4′-(Trifluoromethyl)[Biphenyl]-2-Carboxamide]
13 | 8.5 | Cn1cncc1C1(CNC(=O)c2ccc(F)cc2-c2ccc(C(F)(F)F)cc2)NC(=O)NC1=O (racemic) [Example 284, Rac-5-Fluoro-N-{[4-(1-Methyl-1H-Imidazol-5-Yl)-2,5-Dioxoimidazolidin-4-Yl]Methyl}-4′-(Trifluoromethyl)[Biphenyl]-2-Carboxamide]
14 | 9.8 | Cc1ncn(C)c1C1(CNC(=O)c2ccc(F)cc2-c2ccc(C(F)(F)F)cc2)NC(=O)NC1=O (racemic) [Example 286, Rac-N-{[4-(1,4-Dimethyl-1H-Imidazol-5-Yl)-2,5-Dioxoimidazolidin-4-Yl]Methyl}-5-Fluoro-4′-(Trifluoromethyl)[Biphenyl]-2-Carboxamide]
15 | 21 | Cn1nc2ccccc2c1C1(CNC(=O)c2ccc(F)cc2-c2ccc(C(F)(F)F)cc2)NC(=O)NC1=O (racemic) [Example 288, Rac-5-Fluoro-N-{[4-(2-Methyl-2H-Indazol-3-Yl)-2,5-Dioxoimidazolidin-4-Yl]Methyl}-4′-(Trifluoromethyl)[Biphenyl]-2-Carboxamide]

Second part, the compound before the results:

Row | Compound | IC50 [µM]
16 | O=C1NC(=O)C(CNC(=O)c2ccccc2-c2ccc(C(F)(F)F)cc2)(c2ncccc2C(F)(F)F)N1 (racemic) [Example 243, Rac-N-({2,5-Dioxo-4-[3-(Trifluoromethyl)Pyridin-2-Yl]Imidazolidin-4-Yl}Methyl)-4′-(Trifluoromethyl)[Biphenyl]-2-Carboxamide] | 45
17 | O=C1NC(=O)C(CNC(=O)c2ccc(F)cc2-c2ccc(Cl)cc2)(C2CC(F)(F)C2)N1 (racemic) [Example 245, Rac-4′-Chloro-N-{[4-(3,3-Difluorocyclobutyl)-2,5-Dioxoimidazoidin-4-Yl]Methyl}-5-Fluoro[Biphenyl]-2-Carboxamide] | > 50
18 | O=C1NC(=O)C(CNC(=O)c2ccccc2-c2ccc(Cl)cc2)(C2CC(F)(F)C2)N1 (racemic) [Example 246, Rac-4′-Chloro-N-{[4-(3,3-Difluorocyclobutyl)-2,5-Dioxoimidazolidin-4-Yl]Methyl}[Biphenyl]-2-Carboxamide] | > 50
19 | O=C1NC(=O)C(CNC(=O)c2ccc(F)cc2-c2ccc(Cl)cc2)(C2(F)CC2)N1 (racemic) [Example 249, Rac-4′-Chloro-5-Fluoro-N-{[4-(1-Fluorocyclopropyl)-2,5-Dioxoimidazolidin-4-Yl]Methyl}[Biphenyl]-2-Carboxamide] | 35
20 | O=C1NC(=O)C(CNC(=O)c2ccc(F)cc2-c2ccc(C(F)(F)F)cc2)(C2(F)CC2)N1 (racemic) [Example 252, Rac-5-Fluoro-N-{[4-(1-Fluorocyclopropyl)-2,5-Dioxoimidazolidin-4-Yl]Methyl}-4′-(Trifluoromethyl)[Biphenyl]-2-Carboxamide] | 41
21 | O=C1NC(=O)C(CNC(=O)c2ccc(F)c(F)c2-c2ccc(C(F)(F)F)cc2)(C2(F)CC2)N1 (racemic) [Example 256, Rac-5,6-Difluoro-N-{[4-(1-Fluorocyclopropyl)-2,5-Dioxoimidazolidin-4-Yl]Methyl}-4′-(Trifluoromethyl)[Biphenyl]-2-Carboxamide] | 28
22 | O=C1NC(=O)C(CNC(=O)c2ccccc2-c2ccc(C(F)(F)F)cc2)(c2ccnn2C(F)F)N1 (racemic) [Example 260, Rac-N-({4-[1-(Difluoromethyl)-1H-Pyrazol-5-Yl]-2,5-Dioxoimidazolidin-4-Yl}Methyl)-4′-(Trifluoromethyl)[Biphenyl]-2-Carboxamide] | 17
23 | O=C1NC(=O)C(CNC(=O)c2ccc(F)cc2-c2ccc(C(F)(F)F)cc2)(c2ccnn2C(F)F)N1 (racemic) [Example 262, Rac-N-({4-[1-(Difluoromethyl)-1H-Pyrazol-5-Yl]-2,5-Dioxoimidazolidin-4-Yl}Methyl)-5-Fluoro-4′-(Trifluoromethyl)[Biphenyl]-2-Carboxamide] | 19
24 | O=C1NC(=O)C(CNC(=O)c2ccccc2-c2ccc(C(F)(F)F)cc2)(c2ncsc2C(F)(F)F)N1 (racemic) [Example 263, Rac-N-({2,5-Dioxo-4-[5-(Trifluoromethyl)-1,3-Thiazol-4-Yl]Imidazolidin-4-Yl}Methyl)-4′-(Trifluoromethyl)[Biphenyl]-2-Carboxamide] | 32
25 | O=C1NC(=O)C(CNC(=O)c2ccccc2-c2ccc(C(F)(F)F)cc2)(c2ncsc2C2CC2)N1 (racemic) [Example 270, Rac-N-{[4-(5-Cyclopropyl-1,3-Thiazol-4-Yl)-2,5-Dioxoimidazolidin-4-Yl]Methyl}-4′-(Trifluoromethyl)[Biphenyl]-2-Carboxamide] | 6.9
26 | Cc1cc(C2(CNC(=O)c3ccc(F)cc3-c3ccc(C(F)(F)F)cc3)NC(=O)NC2=O)n(C)n1 (racemic) [Example 276, Rac-N-{[4-(1,3-Dimethyl-1H-Pyrazol-5-Yl)-2,5-Dioxoimidazolidin-4-Yl]Methyl}-5-Fluoro-4′-(Trifluoromethyl)[Biphenyl]-2-Carboxamide] | 15
27 | O=C1NC(=O)C(CNC(=O)c2ccccc2-c2ccc(C(F)(F)F)nc2)(C2(Cl)CC2)N1 (racemic) [Example 281, Rac-N-{[4-(1-Chlorocyclopropyl)-2,5-Dioxoimidazolidin-4-Yl]Methyl}-2-[6-(Trifluoromethyl)Pyridin-3-Yl]Benzamide] | 26
28 | Cn1cncc1C1(CNC(=O)c2ccccc2-c2ccc(C(F)(F)F)nc2)NC(=O)NC1=O (racemic) [Example 285, Rac-N-{[4-(1-Methyl-1H-Imidazol-5-Yl)-2,5-Dioxoimidazolidin-4-Yl]Methyl}-2-[6-(Trifluoromethyl)Pyridin-3-Yl]Benzamide] | 6.6
